Test results taken from patent US12428455B2, “Dominant negative CEBPB and CEBPD proteins and methods of use for decreasing viability of neoplastic cells” (The Trustees of Columbia University in the City of New York, priority 2018, dated 2025).
No end group written: not given here.

Legend:
[1] = tested on: Mgpp3 murine proneural glioma cells; test: Cell number after peptide treatment, Mgpp3; type: cell-based; conditions: 6 days, 0 μM to 50 μM; stock without BSA
Method: (§1) Replicate cultures were exposed to the peptides the for 6 days at the indicated concentrations. Stock solutions of the peptides were prepared in buffer without added bovine serum albumin (BSA).

[2] = tested on: B16 murine melanoma cells; test: Cell number after peptide treatment, B16; type: cell-based; conditions: 6 days, 0 μM to 50 μM; stock without BSA
Method: as §1

[3] = tested on: MDA-MB-468 breast cancer cells; test: Cell number after peptide treatment, MDA-MB-468; type: cell-based, human; conditions: 6 days, 0 μM to 50 μM; stock without BSA
Method: Replicate cultures of MDA-MB-468 breast cancer cells, A549 lung cancer cells and 293T transformed embryonic kidney cells were exposed to CP-DN-CEBPB or CP-DN-CEBPD, for 6 days at doses of 0 μM to 50 μM. […] Stock solutions of the peptides were prepared in buffer without added bovine serum albumin (BSA).

MDA-MB 231 cells [4] = test: Colony forming activity in soft agar, MDA-MB 231; type: cell-based; conditions: 6 days; doses 0.05, 0.5 and 5 μM
Method: T98G (FIG. 21A), MDA-MB 231 (FIG. 21B), and HCT116 (FIG. 21C) cells were exposed to CP-DN-CEBPB and CP-DN-CEBPD for 6 days at doses of 0.05 μM 0.5 μM, and 5 μM while growing in soft agar. Growth was inhibited by does as low as 0.5 μM. T98G (FIG. 21D), MDA-MB 231 (FIG. 21E), and HCT116 (FIG. 21F) cells were exposed to CP-DN-CEBPB and CP-DN-CEBPD for 6 days at doses of 0.05 μM 0.5 μM, and 5 μM while growing on culture plates. Growth was inhibited by does as low as 0.5 μM.

MCF7 cells = test: Combination with paclitaxel, cell number, MCF7; type: cell-based; conditions: 1 nM or 5 nM paclitaxel and 3, 10 or 20 μM peptide, 6 days
Method: Replicate cultures of T98G, MDA-MB 231, and MCF7 cells were treated with 1 nM or 5 nM paclitaxel and 3 μM, 10 μM, or 20 μM CP-dn-CEBPB and CP-dn-CEBPD peptides, maintained for 6 days, and then assessed for cell number. The bar graphs of FIGS. 26A (T98G, CP-dn-CEBPB), 26C (T98G, CP-dn-CEBPBD, 26E (MDA-MB-231, CP-dn-CEBPBD), 26G (MDA-MB-231, CP-dn-CEBPD), 26I (MCF7, CP-dn-CEBPBB), and 26K (MCF7, CP-dn-CEBPBD) show relative cell numbers for each condition as compared to untreated controls. The line graphs of FIGS. 26B (T98G, CP-dn-CEBPB), 26D (T98G, CP-dn-CEBPBD), 26F (MDA-MB-231, CP-dn-CEBPB), 26H (MDA-MB-231, CP-dn-CEBPD), 26J (MCF7, CP-dn-CEBPB), and 26L (MCF7 CP-dn-CEBPBD) show the response as normalized in each case so that 100 represents the relative number of surviving cells that received the indicated level of paclitaxel, but no peptide treatment. Calculated combination indices (CI) were as follows: MCF7: CI=0.41±0.04 for CP-dn-CEBPB; 0.44±0.04 for CP-dn-CEBPD; MDA-MB-231: 0.74±0.03 for CP-dn-CEBPB; 0.74±0.05 for CP-dn-CEBPD; T98G: CI=0.84±0.06 for CP-dn-CEBPB and 0.75±0.07 for CP-dn-CEBPD.

MDA-MB 231 cells [5] = test: Combination with chloroquine, cell number, MDA-MB 231; type: cell-based; conditions: 5 μM or 10 μM chloroquine and 3 μM or 10 μM peptide, 6 days
Method: Replicate cultures of T98G, MDA-MB 231, and HCT116 cells were treated with 5 μM or 10 μM chloroquine and 3 μM or 10 μM CP-dn-CEBPB and CP-dn-CEBPD peptides, maintained for 6 days, and then assessed for cell number. The bar graphs of FIGS. 29A (T98G, CP-dn-CEBPB), 29C (T98G, CP-dn-CEBPBD, 29E (MDA-MB-231, CP-dn-CEBPBD), 29G (MDA-MB-231, CP-dn-CEBPD), 29I (HCT116, CP-dn-CEBPBB), and 26K (HCT116, CP-dn-CEBPBD) show relative cell numbers for each condition as compared to untreated controls. The line graphs of FIGS. 26B (T98G, CP-dn-CEBPB), 26D (T98G, CP-dn-CEBPBD), 26F (MDA-MB-231, CP-dn-CEBPB), 26H (MDA-MB-231, CP-dn-CEBPD), 26J (HCT116, CP-dn-CEBPB), and 26L (HCT116 CP-dn-CEBPBD) show the response as normalized in each case so that 100 represents the relative number of surviving cells that received the indicated level of chloroquine, but no peptide treatment. The results ranged from near-additive (HCT116 cells, CI=0.92±0.08 for CP-dn-CEBPB and 0.87±0.07 for CP-dn-CEBPD) to apparent synergy (T98G, CI=0.56±0.06 for CP-dn-CEBPB and 0.75±0.03 for CP-dn-CEBPD; MDA-MB-261, CI=0.59±0.11 for CP-dn-CEBPB and 0.47±0.05 for CP-dn-CEBPD).

IL6 = test: qPCR for IL6 mRNA; type: cell-based; conditions: 20 μM, 3 days; T98G, MDA-MB-231, MCF7, A375 and HCT116 cells
Method: T98G, MDA-MB-231, MCF7, A375, and HCT116 cells were treated with or without 20 μM CP-dn-CEBPB or CP-dn-CEBPD for 3 days and then assessed by qPCR for relative levels of IL6 (FIG. 32A, T98G; FIG. 32B, MDA-MB-231; FIG. 32C, MCF7; FIG. 32D, A375; FIG. 32E, HCT116) and IL8 mRNA (FIG. 32F, T98G; FIG. 32G, MDA-MB-231; FIG. 32H, MCF7; FIG. 32I, A375; FIG. 32J, HCT116).

[6] = tested on: ASNS (Asparagine synthetase); test: qPCR for ASNS; type: cell-based; conditions: 20 μM, 3 days; T98G, MDA-MB-231, MCF7, A375 and HCT116 cells
Method: T98G, MDA-MB-231, MCF7, A375, and HCT116 cells were treated with or without 20 μM CP-dn-CEBPB or CP-dn-CEBPD for 3 days and then assessed by qPCR for relative levels of ASNS (Asparagine synthetase) (FIG. 33A, T98G; FIG. 33B, MDA-MB-231; FIG. 33C, MCF7; FIG. 33D, A375; FIG. 33E, HCT116).

Row | Sequence | growth and survival of Mgpp3 cells [1] | growth and survival of B16 cells [2] | number of MDA-MB-468 cells [3] | lowest dose at which growth was inhibited, soft agar (MDA-MB 231 cells [4]) [µM] | combination index (CI) with paclitaxel (MCF7 cells) | CI with chloroquine (MDA-MB 231 cells [5]) | relative levels of IL6 mRNA (IL6) | relative levels of ASNS [6]
1 | RQIKIWFQNRRMKWKKLETQHKVLELTAENERLQKKVEQLSRELSTLRNLFKQL [CP-DN-CEBPB] | decrease in growth and survival | decrease in growth and survival | dose-dependent decrease in the number | 0.5 | 0.41±0.04 | 0.59±0.11 | suppress expression | suppress expression of ASNS
2 | RQIKIWFQNRRMKWKKLVELSAENEKLHQRVEQLTRDLAGLRQFFK [CP-DN-CEBPD] | decrease in growth and survival | decrease in growth and survival | dose-dependent decrease in the number | 0.5 | 0.44±0.04 | 0.47±0.05 | suppress expression | suppress expression of ASNS
